Earlier results as cited in patent US10478472B2, “Combination of tolerogenic peptides and TFG-B for use in the induction and maintenance of oral tolerance in young mammals” (NESTEC S.A., priority 2015, dated 2019).

Details: identified as part of a longer peptide sequence in WO2000/42863

| Substance | inducers of oral tolerance |
| --- | --- |
| EVDDEALEK (listed as Bos taurus) [SEQ ID No. 8, BLG peptide, position 143-151] | inducers of oral tolerance |
| VLDTDY (listed as Bos taurus) [SEQ ID No. 7, BLG peptide, position 110-115] | inducers of oral tolerance |
| IDALNENK (listed as Bos taurus) [SEQ ID No. 6, BLG peptide, position 100-107] | inducers of oral tolerance |
